Results as given in patent publication US20260240765A1, “RIFAMYCIN-QUINOLIZINONE COUPLED MOLECULE OINTMENT AND METHOD FOR PREPARING SAME” (Tennor Therapeutics (Zhongshan) Limited, priority 2022, published 2026).

What was measured:
[1] = Saturation solubility of API in ointment bases; type: physicochemical
Method: (§1) Experimental steps: About 340 mg of API was added gradually and slowly to about 5 g of PEG400 (in a water bath at 40° C.), and the mixture was dissolved by magnetic stirring. The orange-red mixture was gradually viscous and could no longer be stirred. About 7 g of PEG400 was added gradually and stirred for another 20 min. The resulting mixture was divided into two portions, one portion was maintained in a water bath at 40° C., and the other portion was cooled to room temperature. Both portions were filtered through a PES water membrane (13 mm, 0.45 μm), and the filtrates were collected for content analysis.
as §1, with “About 400” for “Experimental steps: About 340”, “About 400 mg of” for “steps: About 340 mg of”, “g of propylene glycol (in a” for “g of PEG400 (in a”, “mixture was stirred for dissolution. The orange-red” for “mixture was dissolved by magnetic stirring. The orange-red”

[2] = cited from earlier work

Saturation solubility ([1]; in PEG400, 40° C.): 23.79 mg/g | Saturation solubility ([1]; in PEG400, room temperature): 5.80 mg/g | Saturation solubility ([1]; in propylene glycol, 40° C.): 0.65 mg/g | Saturation solubility ([1]; in propylene glycol, room temperature): 0.15 mg/g
Structure (SMILES): CO[C@H]1/C=C/O[C@@]2(C)Oc3c(C)c(O)c4c(O)c(c(/C=N/N5CCC(N(C)C6([C@@H]7CCN(c8c(F)cn9c(=O)c(C(=O)O)cc(C%10CC%10)c9c8C)C7)CC6)CC5)c(O)c4c3C2=O)NC(=O)/C(C)=C\C=C\[C@H](C)[C@H](O)[C@@H](C)[C@@H](O)[C@@H](C)[C@H](OC(C)=O)[C@@H]1C [API, rifamycin-quinolizinone coupling molecule]
Solubility in dichloromethane, polyethylene glycol 400, and dimethyl sulfoxide [2]: soluble | Solubility in ethanol, methanol, and diethyl ether [2]: almost insoluble | Water solubility [2]: low | Oxidation on exposure to air ([2]; phenol form converts to quinone form): easily to be oxidized | pH of maximum water solubility ([2]; water solubility is pH-dependent, relatively low at low pH): 10
